pIC50: −log10 of the molar value. Where two headings read alike, the source gives them in different places.
Experiments:
[1] = tested on: D-GalN/LPS-induced liver injury in mice; design: method as in PMID 24697904; settings: p.o., cited from earlier work; for Mortality: dead/total; for sALT / sAST: mean ± S.E.M.
[2] = tested on: primary cultured mouse hepatocytes; settings: cited from earlier work; for Inhibition (%) of D-GalN-induced cytotoxicity: mean ± S.E.M. (n = 4)
[3] = tested on: D-GalN/LPS-induced liver injury in mice; assay: D-GalN/LPS-induced liver injury in mice; type: in vivo, mouse; settings: 500 mg/kg, p.o.
Procedure: Male ddY mice (Kiwa Laboratory Animal Co., Ltd., Wakayama, Japan) were housed at a constant temperature of 23 ± 2°C and were fed a standard laboratory chow (MF, Oriental Yeast Co., Ltd., Tokyo, Japan). The animals were fasted for 24 h prior to the beginning of the experiment but were allowed free access to tap water. All experiments were performed with conscious mice unless otherwise noted. The experimental protocol was approved by the Experimental Animal Research Committee of Kindai University (KAPR-26-001, 1 April 2014).
The method described by Tiegs et al. was modified and used for this study. Curcumin [36] and silybin were used as reference compounds.

L929 cells = tested on: L929 cells; design: method as in PMID 24697904; settings: cited from earlier work; for Inhibition (%) of TNF-α-induced cytotoxicity: mean ± S.E.M. (n = 4)

SMILES: COc1cc(/C=C/C(=O)CC(=O)/C=C/c2ccc(O)c(OC)c2)ccc1O [Curcumin, curcumin]
- sALT Inhibition (%) ([1]; 12.5 mg/kg): 24.0%
- sAST Inhibition (%) ([1]; 12.5 mg/kg): 21.1%
- Mortality ([1]; 12.5 mg/kg): 0/10
- sALT ([1]; 12.5 mg/kg): 5024 ± 1189 Karmen Unit
- sAST ([1]; 12.5 mg/kg): 4770 ± 1218 Karmen Unit
- sALT Inhibition (%) ([1]; 25 mg/kg): 50.9%
- sAST Inhibition (%) ([1]; 25 mg/kg): 47.8%
- Mortality ([1]; 25 mg/kg): 0/10
- sALT ([1]; 25 mg/kg): 3253 ± 981 Karmen Unit
- sAST ([1]; 25 mg/kg): 3177 ± 979 Karmen Unit
- sALT Inhibition (%) ([1]; 50 mg/kg): 71.2%
- sAST Inhibition (%) ([1]; 50 mg/kg): 63.8%
- Mortality ([1]; 50 mg/kg): 1/10
- sALT ([1]; 50 mg/kg): 1916 ± 483 Karmen Unit
- sAST ([1]; 50 mg/kg): 2220 ± 563 Karmen Unit
- Inhibition (%) of D-GalN-induced cytotoxicity ([2]; 3 µM): 0.1 ± 3.8%
- Inhibition (%) of D-GalN-induced cytotoxicity ([2]; 10 µM): 1.1 ± 2.2%
- Inhibition (%) of D-GalN-induced cytotoxicity ([2]; 30 µM): −17.7 ± 1.3%
- Inhibition (%) of D-GalN-induced cytotoxicity ([2]; 100 µM): −44.3 ± 0.3%
- Reduction of D-GalN-induced cytotoxicity (in words) ([2]; concentrations of up to 100 μM): did not reduce D-GalN-induced cytotoxicity

SMILES: COc1cc(C2Oc3cc([C@H]4Oc5cc(O)cc(O)c5C(=O)[C@@H]4O)ccc3OC2CO)ccc1O (some centres unmarked) [Silybin, silybin]
- sALT Inhibition (%) [3]: 71.9%
- sAST Inhibition (%) [3]: 71.1%
- Mortality ([3]; dead/total): 0/8
- sALT ([3]; mean ± S.E.M.): 1990 ± 439 Karmen Unit
- sAST ([3]; mean ± S.E.M.): 1361 ± 191 Karmen Unit
- Inhibition (%) of TNF-α-induced cytotoxicity (L929 cells; 3 µM): 5.3 ± 2.8%
- Inhibition (%) of TNF-α-induced cytotoxicity (L929 cells; 10 µM): 22.0 ± 3.8 %
- Inhibition (%) of TNF-α-induced cytotoxicity (L929 cells; 30 µM): 48.0 ± 4.1 %
- Inhibition (%) of TNF-α-induced cytotoxicity (L929 cells; 100 µM): 50.8 ± 3.9 %
- pIC50 (L929 cells; L929 cells, read-out: IC50, inhibition of TNF-α-induced decrease in cell viability): 4.43
- Inhibition (%) of D-GalN-induced cytotoxicity ([2]; 3 µM): 4.8 ± 1.1%
- Inhibition (%) of D-GalN-induced cytotoxicity ([2]; 10 µM): 7.7 ± 0.7%
- Inhibition (%) of D-GalN-induced cytotoxicity ([2]; 30 µM): 45.2 ± 8.8 %
- Inhibition (%) of D-GalN-induced cytotoxicity ([2]; 100 µM): 77.0 ± 5.5 %
- pIC50 ([2]; primary mouse hepatocytes, read-out: IC50, inhibition of D-GalN-induced cytotoxicity): 4.41

Reference: paper PMC4849045, “Hepatoprotective Limonoids from Andiroba (Carapa guianensis)” (International Journal of Molecular Sciences, 2016)
